The values below come from paper PMC10695101 (Molecular and cellular endocrinology, 2023).

The test system of the assay is androgen receptor α (ARα). Put plainly: Gal4DBD-LBD/UAS luciferase transactivation assay in U-2 OS cells. Format: cell-based, Apteronotus albifrons.

Compound `C[C@]12CCC(=O)C[C@@H]1CC[C@@H]1[C@@H]2CC[C@]2(C)[C@@H](O)CC[C@@H]12` [5α-DHT] gave an EC50 of […].
`C[C@]12CC(=O)[C@H]3[C@@H](CCC4=CC(=O)CC[C@@]43C)[C@@H]1CC[C@@H]2O` [11-KT] registered an EC50 of 10 nM.

In general, EC50 refers to the concentration at which the effect is half-maximal. The low end stands for an effect from little substance, the high end for a need for much substance.
